Assays:
Assay in all cases: Bliss excess, mean over the matrix (fraction); higher = more synergy
[1] = system: EW-24 (Ewing's Sarcoma)
How it was run: (§1)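 After 24 hours at 37°C and 5% CO2 in 1536-well plates, cells in DMEM/F12 or RPMI plus 10% FBS received two-drug dose matrices for 72 hours. Viability came from CellTiter-Glo 2.0 luminescence and was scaled as inhibition, anchored at 0 by vehicle wells and at 1 by blank wells. Combination Emax is taken as the second-highest inhibition in the matrix, and Bliss excess as the observed combination effect less EA + EB − EA·EB, with EA and EB the single-agent effects.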

[2] = system: AMO-1 (Plasma Cell Myeloma)
How it was run: as §1

[3] = system: NB69 (Neuroblastoma)
How it was run: as §1

[4] = system: Caov-4 (Ovarian Carcinoma)
How it was run: as §1

[5] = system: SCC-15 (Oral Cavity Carcinoma)
How it was run: as §1

[6] = system: TE-1 (Esophageal Squamous Cell Carcinoma)
How it was run: as §1

[7] = system: OE19 (Esophageal Adenocarcinoma)
How it was run: as §1

[8] = system: D-263MG (Glioblastoma)
How it was run: as §1

[9] = system: HSC-4 (Oral Cavity Carcinoma)
How it was run: as §1

[10] = system: EoL-1-cell (Acute Myeloid Leukemia)
How it was run: as §1

[11] = system: KARPAS-299 (T-Cell Non-Hodgkin's Lymphoma)
How it was run: as §1

[12] = system: ACHN (Kidney Carcinoma)
How it was run: as §1

[13] = system: RF-48 (B-Cell Non-Hodgkin's Lymphoma)
How it was run: as §1

[14] = system: TK10 (Kidney Carcinoma)
How it was run: as §1

[15] = system: YH-13 (Glioblastoma)
How it was run: as §1

[16] = system: UACC-62 (Melanoma)
How it was run: as §1

[17] = system: Ca9-22 (Head and Neck Carcinoma)
How it was run: as §1

[18] = system: NCI-H727 (Other Solid Carcinomas)
How it was run: as §1

[19] = system: TGW (Neuroblastoma)
How it was run: as §1

[20] = system: KYSE-450 (Esophageal Squamous Cell Carcinoma)
How it was run: as §1

SMILES	Bliss excess [1]	Bliss excess [2]	Bliss excess [3]	Bliss excess [4]	Bliss excess [5]	Bliss excess [6]	Bliss excess [7]	Bliss excess [8]	Bliss excess [9]	Bliss excess [10]	Bliss excess [11]	Bliss excess [12]	Bliss excess [13]	Bliss excess [14]	Bliss excess [15]	Bliss excess [16]	Bliss excess [17]	Bliss excess [18]	Bliss excess [19]	Bliss excess [20]
COc1nnc2ccc(N3CCC(c4ccc(OCCN5CCN(C)C(=O)[C@H]5C)cc4)CC3)nn12 [AZD5153] + CC1(C)CCC(CN2CCN(c3ccc(C(=O)NS(=O)(=O)c4ccc(NCC5CCOCC5)c([N+](=O)[O-])c4)c(Oc4cnc5[nH]ccc5c4)c3)CC2)=C(c2ccc(Cl)cc2)C1 [Venetoclax] (first compound max 1 µM, 7x7, partner max 1 µM)	-0.0962	-0.0483	0.0488	0.0179	-0.0681	-0.0383	0.0029	-0.0613	-0.0705	-0.0183	-0.0419	-0.0499	-0.0312	-0.0549	-0.0441	-0.0271	-0.0321	-0.0558	0.0081	-0.0404
CC(=O)c1c(C)c2cnc(Nc3ccc(N4CCNCC4)cn3)nc2n(C2CCCC2)c1=O [Palbociclib] + CC1(C)CCC(CN2CCN(c3ccc(C(=O)NS(=O)(=O)c4ccc(NCC5CCOCC5)c([N+](=O)[O-])c4)c(Oc4cnc5[nH]ccc5c4)c3)CC2)=C(c2ccc(Cl)cc2)C1 [Venetoclax] (first compound max 10 µM, 7x7, partner max 1 µM)	0.0021	-0.0284	0.0084	-0.057	-0.0589	-0.0385	-0.0449	-0.0043	-0.0523	0.0515	-0.0496	0.0329	-0.112	-0.0312	0.0451	-0.0678	-0.0044	0.0029	-0.014	-0.0407
CC1(C)CCC(CN2CCN(c3ccc(C(=O)NS(=O)(=O)c4ccc(NCC5CCOCC5)c([N+](=O)[O-])c4)c(Oc4cnc5[nH]ccc5c4)c3)CC2)=C(c2ccc(Cl)cc2)C1 [Venetoclax] + C1CN(CCC1(C(=O)N[C@@H](CCO)C2=CC=C(C=C2)Cl)N)C3=NC=NC4=C3C=CN4 [Capivasertib] (first compound max 1 µM, 7x7, partner max 3 µM)	-0.0113	-0.0267	0.0242	-0.0458	-0.0639	-0.0236	-0.016	-0.0151	-0.0281	0.0239	-0.0004	-0.0358	0.0226	-0.0574	-0.039	-0.0238	-0.0171	-0.0539	-0.0211	-0.0296
NC1(C(=O)N[C@@H](CCO)c2ccc(Cl)cc2)CCN(c2ncnc3[nH]ccc23)CC1 [Capivasertib] + COc1nnc2ccc(N3CCC(c4ccc(OCCN5CCN(C)C(=O)[C@H]5C)cc4)CC3)nn12 [AZD5153] (first compound max 10 µM, 7x7, partner max 1 µM)	0.0532	-0.0336	-0.0299	-0.0146	0.028	-0.0169	0.0561	0.0459	0.0211	-0.0442	-0.0453	-0.0094	-0.0275	-0.0154	0.0553	-0.0551	-0.0073	0.0278	-0.0364	-0.0508
CS(=O)(=O)CCNCc1ccc(-c2ccc3ncnc(Nc4ccc(OCc5cccc(F)c5)c(Cl)c4)c3c2)o1 [Lapatinib] + NC1(c2ccc(-c3nc4ccn5c(=O)[nH]nc5c4cc3-c3ccccc3)cc2)CCC1 [MK-2206] (first compound max 10 µM, 7x7, partner max 10 µM)	0.0118	-0.048	0.0688	-0.05	–	–	–	-0.0222	0.0003	0.0098	0.0874	0.0221	0.0003	0.0616	-0.0154	0.0426	0.005	0.0172	-0.0033	-0.022
C=CCn1c(=O)c2cnc(Nc3ccc(N4CCN(C)CC4)cc3)nc2n1-c1cccc(C(C)(C)O)n1 [AZD1775] + C1CN(CCC1(C(=O)N[C@@H](CCO)C2=CC=C(C=C2)Cl)N)C3=NC=NC4=C3C=CN4 [Capivasertib] (first compound max 3 µM, partner max 3 µM)	-0.0878	0.0002	-0.0304	-0.0398	-0.0319	0.001	0.0192	-0.0143	0.0018	-0.0451	-0.0444	-0.0283	-0.0989	-0.124	-0.0309	0.0375	-0.0236	-0.0584	-0.0542	-0.0843
NC1(C(=O)N[C@@H](CCO)c2ccc(Cl)cc2)CCN(c2ncnc3[nH]ccc23)CC1 [Capivasertib] + CC(=O)c1c(C)c2cnc(Nc3ccc(N4CCNCC4)cn3)nc2n(C2CCCC2)c1=O [Palbociclib] (first compound max 10 µM, 7x7, partner max 10 µM)	0.0087	0.0364	-0.009	0.0152	-0.0456	-0.0276	-0.0854	0.0117	-0.0777	-0.0039	0.0205	0.003	-0.0186	-0.0106	0.0004	-0.057	0.0171	-0.0139	-0.0744	0.0133
CCc1c2c(nc3ccc(O)cc13)-c1cc3c(c(=O)n1C2)COC(=O)[C@]3(O)CC [SN-38] + O=C(c1cc(Cc2n[nH]c(=O)c3ccccc23)ccc1F)N1CCN(C(=O)C2CC2)CC1 [Olaparib] (first compound max 0.3 µM, 7x7, partner max 10 µM)	0.0359	0.0023	0.0236	0.0748	–	–	0.0026	0.0617	–	0.135	0.0404	0.0198	0.0259	0.011	0.0927	0.0203	0.0176	-0.0075	0.06	0.0808
Cc1c2c(nn1C)CSCc1cc(n(C)n1)CSc1cc(c3ccccc3c1)OCCCc1c(C(=O)O)n(C)c3c-2c(Cl)ccc13 [AZD5991] + C[C@@H](Nc1cc(F)cc(F)c1)c1cc(C(=O)N(C)C)cc2c(=O)cc(N3CCOCC3)oc12 [AZD8186] (first compound max 1 µM, 7x7, partner max 3 µM)	-0.0426	0.0522	-0.0207	-0.0121	0.0139	-0.0186	0.043	0.0849	-0.063	0.0072	0.0185	0.0607	-0.0401	-0.0736	0.0058	0.036	-0.012	0.0239	-0.0155	–
Cc1c2c(nn1C)CSCc1cc(n(C)n1)CSc1cc(c3ccccc3c1)OCCCc1c(C(=O)O)n(C)c3c-2c(Cl)ccc13 [AZD5991] + CC1(C)CCC(CN2CCN(c3ccc(C(=O)NS(=O)(=O)c4ccc(NCC5CCOCC5)c([N+](=O)[O-])c4)c(Oc4cnc5[nH]ccc5c4)c3)CC2)=C(c2ccc(Cl)cc2)C1 [Venetoclax] (first compound max 1 µM, 7x7, partner max 1 µM)	-0.0224	0.0456	0.136	-0.0137	-0.0341	–	-0.0285	-0.0036	-0.0498	0.167	0.0445	0.0156	0.12	-0.0581	-0.0433	0.0296	-0.006	-0.012	0.128	-0.0061
C[C@@H]1COCCN1c1cc(C2([S@](C)(=N)=O)CC2)nc(-c2ccnc3[nH]ccc23)n1 [AZD6738] + C1CC(C1)(C(=O)[O-])C(=O)[O-].N.N.[Pt+2] [Carboplatin] (first compound max 10 µM, 7x7, partner max 10 µM)	-0.0462	0.0025	-0.0502	-0.0209	–	–	–	-0.0417	–	-0.0132	-0.0261	-0.034	-0.0788	-0.0837	-0.0453	-0.0289	-0.0479	-0.0445	-0.0765	-0.0386
Cc1c2c(nn1C)CSCc1cc(n(C)n1)CSc1cc(c3ccccc3c1)OCCCc1c(C(=O)O)n(C)c3c-2c(Cl)ccc13 [AZD5991] + Nc1ccn([C@@H]2O[C@H](CO)[C@@H](O)C2(F)F)c(=O)n1 [Gemcitabine] (first compound max 1 µM, 7x7, partner max 0.3 µM)	0.0048	0.0042	0.0037	-0.0312	–	–	–	0.08	–	-0.0123	-0.0188	-0.0455	0.0014	-0.0198	0.0143	-0.0219	0.0042	-0.0394	0.007	-0.0267
Cc1c2c(nn1C)CSCc1cc(n(C)n1)CSc1cc(c3ccccc3c1)OCCCc1c(C(=O)O)n(C)c3c-2c(Cl)ccc13 [AZD5991] + C[C@@H]1COCCN1C2=NC(=NC(=C2)C3(CC3)[S@](=N)(=O)C)C4=C5C=CNC5=NC=C4 [AZD6738] (first compound max 1 µM, 7x7, partner max 10 µM)	-0.0078	0.0055	0.0301	-0.0205	0.0506	0.0125	–	-0.0023	-0.0403	0.0036	0.0002	-0.0008	-0.0062	-0.0599	0.0218	0.0478	0.0573	0.025	0.0167	0.0407
O=C(c1cc(Cc2n[nH]c(=O)c3ccccc23)ccc1F)N1CCN(C(=O)C2CC2)CC1 [Olaparib] + Cc1c2c(nn1C)CSCc1cc(n(C)n1)CSc1cc(c3ccccc3c1)OCCCc1c(C(=O)O)n(C)c3c-2c(Cl)ccc13 [AZD5991] (first compound max 10 µM, 7x7, partner max 1 µM)	-0.0215	-0.0124	-0.0042	-0.0215	–	–	–	-0.0401	–	0.0236	0.0202	-0.0218	-0.108	-0.0699	-0.0298	-0.0089	0.0247	-0.0269	-0.032	-0.0409
